Legend:
[1] = test system: Eschericia coli (E. coli) strain ATCC25922; experiment: Standard microdilution assay, MIC against E. coli ATCC25922; assay type: cell-based; conditions: Escherichia coli; E. coli strain ATCC25922, standard microdilution assay; cutoff 16 micrograms/mL; read-out: MIC E. Coli
How it was run: (§1)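 Scoring as + or − used a 16 micrograms/mL cutoff on minimum inhibitory concentrations. These came from CLSI-standard microdilution, quality-controlled with reference strains tested in the same run.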

[2] = test system: Staphylococcus aureus (S. aureus) 11540 strain; experiment: Standard microdilution assay, MIC against S. aureus 11540; assay type: cell-based; conditions: S. aureus 11540 strain, standard microdilution assay, cutoff 16 micrograms/mL, read-out: MIC S. aureus
How it was run: as §1

MIC [1]	MIC [2]	SMILES
< 16 µg/mL	< 16 µg/mL	C[C@H](N)CCCc1cc(OC(F)(F)F)c(F)c(-c2cc3cn(-c4ccc(CNCC[C@@H](CN)NC(=N)N)cc4)c(=O)nc3[nH]2)c1 [Compound 376]
< 16 µg/mL	< 16 µg/mL	COC[C@@H](CCN[C@@H](C)c1ccc(-n2cc3cc(-c4cc(CCC[C@H](C)N)cc(OC(F)(F)F)c4F)[nH]c3nc2=O)cc1)NC(=N)N [Compound 329]
< 16 µg/mL	< 16 µg/mL	C[C@H](N)CCCc1cc(OC(F)(F)F)c(F)c(-c2cc3cn(-c4ccc([C@@H](N)CCNC(=N)N)cc4)c(=O)nc3[nH]2)c1 [Compound 428]
< 16 µg/mL	< 16 µg/mL	C[C@H](N)CCCc1cc(Cl)c(F)c(-c2cc3cn(-c4ccc([C@@H]5CCO[C@@H](CCNC(=N)N)C5)cc4)c(=O)nc3[nH]2)c1 [Compound 526]
< 16 µg/mL	< 16 µg/mL	C[C@H](N)CCCc1cc(-c2cc3cn(-c4ccc([C@@H]5CCC[C@@H](CCN)N5)cc4)c(=O)nc3[nH]2)cc(C(F)(F)F)c1 [Compound 485]
< 16 µg/mL	< 16 µg/mL	C[C@H](N)CCCc1cc(Cl)c(F)c(-c2cc3cn(-c4ccc(CN[C@H](CCN)CNc5ncc[nH]5)cc4)c(=O)nc3[nH]2)c1 [Compound 537]
< 16 µg/mL	< 16 µg/mL	C[C@H](N)CCCc1cc(Cl)c(F)c(-c2cc3cn(-c4ccc([C@@H](N)CCCNC(=N)N)cc4)c(=O)nc3[nH]2)c1 [Compound 412]
< 16 µg/mL	< 16 µg/mL	C[C@H](N)CCCc1cc(OC(F)(F)F)c(F)c(-c2cc3cn(-c4ccc([C@@H](N)CCCN)cc4)c(=O)nc3[nH]2)c1 [Compound 411]
< 16 µg/mL	< 16 µg/mL	C[C@H](N)CCCc1cc(Cl)c(F)c(-c2cc3cn(-c4ccc(CO[C@H](CCNC(=N)N)CNc5nccs5)cc4)c(=O)nc3[nH]2)c1 [Compound 534]
< 16 µg/mL	< 16 µg/mL	C[C@H](N)CCCc1cc(Cl)c(F)c(-c2cc3cn(-c4ccc(C(=N)NC5CCCC5)cc4)c(=O)nc3[nH]2)c1 [Compound 505]
< 16 µg/mL	< 16 µg/mL	C[C@H](N)CCCc1cc(Cl)c(F)c(-c2cc3cn(-c4ccc(CN[C@H](C)C[C@H](CN)NC(=N)N)cc4)c(=O)nc3[nH]2)c1 [Compound 397]
< 16 µg/mL	< 16 µg/mL	N=C(NC1CC1)c1ccc(-n2cc3cc(-c4ccc(S(=O)(=O)NC5CCNCC5)cc4)[nH]c3nc2=O)cc1 [Compound 502]
< 16 µg/mL	< 16 µg/mL	C[C@H](N)CCCc1cc(Cl)c(F)c(-c2cc3cn(-c4ccc([C@H]5COC[C@@H](CNC(=N)N)N5)cc4)c(=O)nc3[nH]2)c1 [Compound 451]
< 16 µg/mL	< 16 µg/mL	C[C@H](N)CCCc1cc(Cl)c(F)c(-c2cc3cn(-c4ccc([C@H](C)NCC[C@@H](CNC(=O)CN)NC(=N)N)cc4)c(=O)nc3[nH]2)c1 [Compound 422]
< 16 µg/mL	< 16 µg/mL	C[C@H](N)CCCc1cc(OC(F)(F)F)c(F)c(-c2cc3cn(-c4ccc(C(O)[C@@H]5C[C@@H](NC(=N)N)CN5)cc4)c(=O)nc3[nH]2)c1 (stereo partly shown) [Compound 448]
< 16 µg/mL	< 16 µg/mL	NCC[C@@H]1CCC[C@@H](c2ccc(-n3cc4cc(-c5ccc(S(=O)(=O)NC6CCNCC6)cc5)[nH]c4nc3=O)cc2)N1 [Compound 493]
< 16 µg/mL	< 16 µg/mL	C[C@H](N)CCCc1cc(Cl)c(F)c(-c2cc3cn(-c4ccc([C@@H]5CCC[C@@H](CNCC6CCCC6)N5)cc4)c(=O)nc3[nH]2)c1 [Compound 559]
< 16 µg/mL	< 16 µg/mL	C[C@H](N)CCCc1cc(Cl)c(F)c(-c2cc3cn(-c4ccc(C(N)CNC(=N)N)cc4)c(=O)nc3[nH]2)c1 (stereo partly shown) [Compound 473]
> 16 µg/mL	> 16 µg/mL	C[C@H](N)CCCc1cc(Cl)c(F)c(-c2cc3cn(-c4ccc([C@@H]5CCC[C@@H](Cc6cnn[nH]6)N5)cc4)c(=O)nc3[nH]2)c1 [Compound 489]
< 16 µg/mL	< 16 µg/mL	C[C@H](N)CCCc1cc(Cl)c(F)c(-c2cc3cn(-c4ccc(C(=O)NCCCNC(=N)N)cc4)c(=O)nc3[nH]2)c1 [Compound 459]
< 16 µg/mL	< 16 µg/mL	COC[C@@H](CCNC(=N)N)NCc1ccc(-n2cc3cc(-c4cc(CCC[C@H](C)N)cc(Cl)c4F)[nH]c3nc2=O)cc1 [Compound 340]
< 16 µg/mL	< 16 µg/mL	C[C@H](N)CCCc1cc(OC(F)(F)F)c(F)c(-c2cc3cn(-c4ccc([C@H]5CC(CCNC(=N)N)CN5)cc4)c(=O)nc3[nH]2)c1 (stereo partly shown) [Compound 470]
< 16 µg/mL	< 16 µg/mL	COC[C@@H](CCNC(=N)N)NCc1ccc(-n2cc3cc(-c4cc(CCC[C@H](C)N)cc(OC(F)(F)F)c4F)[nH]c3nc2=O)cc1 [Compound 351]
< 16 µg/mL	< 16 µg/mL	C[C@H](N)CCCc1cc(Cl)c(F)c(-c2cc3cn(-c4ccc([C@@H]5CCC[C@@H](CCNC(=N)N)N5C)cc4)c(=O)nc3[nH]2)c1 [Compound 527]
< 16 µg/mL	< 16 µg/mL	C[C@H](N)CCCc1cc(OC(F)(F)F)c(F)c(-c2cc3cn(-c4ccc(CN[C@@H](CN)CCNC(=N)N)cc4)c(=O)nc3[nH]2)c1 [Compound 380]
< 16 µg/mL	< 16 µg/mL	N=C(N)NCC[C@H](CN)NCc1ccc(-n2cc3cc(-c4cc(CCC[C@@H](N)CO)cc(Cl)c4F)[nH]c3nc2=O)cc1 [Compound 394]
< 16 µg/mL	< 16 µg/mL	CC[C@H](N)CCCc1cc(Cl)c(F)c(-c2cc3cn(-c4ccc(CN5CC[C@H](CN)NC5=N)cc4)c(=O)nc3[nH]2)c1 [Compound 416]
< 16 µg/mL	< 16 µg/mL	C[C@H](N)CCCc1cc(Cl)c(F)c(-c2cc3cn(-c4ccc(CN[C@H](CCN)Cn5ccnn5)cc4)c(=O)nc3[nH]2)c1 [Compound 500]
< 16 µg/mL	< 16 µg/mL	C[C@H](N)CCCc1cc(OC(F)(F)F)c(F)c(-c2cc3cn(-c4ccc([C@H](C)NCCC(CC5CNC5)NC(=N)N)cc4)c(=O)nc3[nH]2)c1 (stereo partly shown) [Compound 481]
< 16 µg/mL	< 16 µg/mL	C[C@H](N)CCCc1cc(OC(F)(F)F)c(F)c(-c2cc3cn(-c4ccc(CN[C@H](C)C[C@H](CN)NC(=N)N)cc4)c(=O)nc3[nH]2)c1 [Compound 398]

SMILES	MIC [1]	MIC [2]
CCOP(=O)(OCC)OC[C@@H]1COC[C@H](c2ccc(-n3cc4cc(-c5cc(CCC[C@H](C)N)cc(Cl)c5F)[nH]c4nc3=O)cc2)N1 [Compound 468]	> 16 µg/mL	< 16 µg/mL
CCOP(=O)(OCC)OC[C@H](N)CCCc1cc(Cl)c(F)c(-c2cc3cn(-c4ccc([C@H](C)NCCCNC(=N)N)cc4)c(=O)nc3[nH]2)c1 [Compound 467]	< 16 µg/mL	< 16 µg/mL

Source: patent US10815238B2, “Antimicrobial compounds and methods of making and using the same” (BIOVERSYS AG, priority 2013, dated 2020)
